Reference: patent publication EP0638566B1, “5-Aminoflavone derivatives, their preparation and their use as antibacterial, anti-estrogenic and/or antitumor agent” (KYOWA HAKKO KOGYO CO., LTD., priority 1993, dated 1995)

Legend:
[1] = tested on: estrogen-dependent human mammary cancer MCF-7; assay: Antitumor effects against MCF-7 tumor transplanted in nude mice; type: in vivo, female BALB/c-nu/nu mice; settings: Mus musculus, MCF7; dose 50 mg/kg oral, 5 days per week for two weeks; judgement day 18; read-out: T/C
Description: Antitumor effects against estrogen-dependent human mammary cancer MCF-7
The tumor fragment (2mm x 2mm x 2mm) of human hormone dependent mammary cancer MCF-7 was transplanted subcutaneously in the flank of female BALB/c-nu/nu mice (Nihon Crea), 7 to 9 weeks age. […] 3 to 4 Weeks after transplantation, mice of the tumor volume of 25 to 200 mm^3 were selected, and the test compounds were orally administered repeatedly to the groups (5 animals per group) for 5 days per a week, for total two weeks. In addition, estradiol propionate was administered again on the date of initial administration of the test compounds. Length and width of the tumor were determined every day, and the tumor volumes were calculated by means of ellipsoid approximation according to the following equation: […] [formula] The tumor volume at initial administration (Vo) and on the day of judgement (V) was calculated, and the tumor growth rate (V/Vo) was calculated. T/C value was obtained as the ratio of V/Vo value of treated group relative to that of control group.

[2] = tested on: uterus weight of immature mice; assay: Effect against the increase in uterus weight of immature mice; type: in vivo, female BALB/c mice; settings: dose 50 mg/kg, oral, three days, uteri isolated after four days
Experimental: The effect against the increase in uterus weight of immature mice
Immature female BALB/c mice, 4 weeks age, were divided into two groups and 50 µg of estradiol was subcutaneously administered to the animals of one group in the chest. The test compounds were repeatedly administered orally to each group (8 animals per group) for three days since the date of estradiol administration. After four days, the uteri were isolated and the weight thereof was measured.
In Table 2, "estradiol (-)" represents an estradiol-untreated group and "estradiol (+)" represents an estradiol-treated group.

[3] = tested on: Human mammary cancer MCF-7 cell; assay: Human mammary cancer MCF-7 cell growth inhibition test (neutral red); type: cell-based; settings: MCF7, MCF-7 cells, medium with 10^-8M estradiol, 72 hours, neutral red, absorbance at 550 nm, read-out: IC50
Experimental: Human mammary cancer MCF-7 cell growth inhibition test
Each 0.1 ml of MCF-7 cells which had been prepared to 5 x 10^4/ml using a medium (referred to as Medium B hereinafter) prepared by adding 10% bovine fetal serum, 10^-8M estradiol (manufactured by Sigma), 100 units/ml penicillin and 100 µg/ml streptomycin to RPMI1640 medium was distributed in each well of 96 well-microtiter plate. […] Supernatant was removed, each 0.1 ml of Medium B containing 0.02% neutral red was added to the residue, the mixture was cultured at 37 °C for 1 hour in a CO2 gas incubator and the cells were stained by neutral red dye. Supernatant was removed and the residue was washed once with a physiological saline. Then, the dye was extracted with 0.001N hydrochloric acid/30% ethanol and the absorbance at 550 nm was determined with a microplatereader.

[4] = tested on: estrogen-dependent human mammary cancer Br-10; assay: Antitumor effects against Br-10 tumor transplanted in nude mice; type: in vivo, female BALB/c-nu/nu mice; settings: dose 25 mg/kg oral, 5 days per week for two to four weeks; judgement day 18
Description: Antitumor effects against estrogen-dependent human mammary cancer Br-10
The tumor fragment (2mm x 2mm x 2mm) of human hormone dependent mammary cancer Br-10 was transplanted subcutaneously in the flank of female BALB/c-nu/nu mice (Nihon Crea), 7 to 9 weeks age. […] 3 to 4 Weeks after transplantation, mice the tumor volume of which increased to 30 to 150 mm^3 were selected, and the test compounds were orally administered repeatedly to the groups (5 animals per group) for 5 days per a week, for total two to four weeks. Estradiol propionate was additionally administered on the date of initial administration of the test compounds and 14 days after the administration. Length and breadth of the tumor were determined every day, and the tumor volumes were calculated by means of ellipsoid approximation according to the above equation. The tumor volume at initial administration (Vo) and on the day of judgement (V) was calculated, and the tumor growth rate (V/Vo) was calculated. T/C value was obtained as the ratio of V/Vo value of treated group relative to that of control group.

Cc1c(F)c(N)c2c(=O)cc(-c3ccc(N)c(F)c3)oc2c1F [Compound 1, 5-Amino-2-(4-amino-3-fluorophenyl)-6,8-difluoro-7-methyl-4H-1-benzopyran-4-one]
response vs control in vivo at 50 mg/kg [1]: 6.4% | Weight of uterus ([2]; estradiol (+) (50 µg estradiol s.c.)): 38 mg | Weight of uterus ([2]; estradiol (-) (estradiol-untreated group)): 17 mg | IC50 [3]: 13 nM | T/C [4]: 0.12
